How the values were obtained:
[1] = test system: HCV replicon I389luc-ubi-neo/NS3-3′/ET in ET (Huh-lucubineo-ET) cells; assay: Replicon assay (Biological Example 2), luciferase readout; assay type: cell-based; details: Hepatitis C virus
Method in brief: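 EC50 values come from Hill fits of % inhibition of replicon-driven firefly luciferase, relative to no-compound wells. Compounds were serially diluted (10 points, 3-fold, 0.1 nM–50 μM final, 0.5% DMSO) onto ET replicon cells and read after 48 h.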

[2] = target: T1, HCV polymerase (Hepatitis C virus genotype 1b, UniProt Q9WMX2); assay: Polymerase assay of Biological Example 1 (IC50 values of Table 3); assay type: biochemical; details: IC50 values of Table 3, polymerase assay of Biological Example 1; read-out: NS5B-enzyme3
T1 construct: (His)6 (C); made in house; host or cells: XL-1 cells (E. coli, by own knowledge)

[3] = ET cells, luciferase activity 48 hours after compound

SMILES	IC50 ([1]; between 100 nM and 5.0 uM) [nM]	IC50 [2] [nM]	IC50 [1, 3] [nM]
Cn1ccc2cc(S(=O)(=O)N3CC(=O)N(c4cc(-c5ccccc5)sc4C(=O)O)C(C4CCCCC4)C3)ccc21 (centres unmarked) [Compound 61, 3-[2-Cyclohexyl-4-(1-methyl-1H-indole-5-sulfonyl)-6-oxo-piperazin-1-yl]-5-phenyl-thiophene-2-carboxylic acid]	100 to 5000	3	–
CC(=O)Nc1ccc(S(=O)(=O)N2CC(=O)N(c3cc(-c4ccccc4)sc3C(=O)O)C(C3CCCCC3)C2)cc1 (centres unmarked) [Compound 50, 3-[4-(4-Acetylamino-benzenesulfonyl)-2-cyclohexyl-6-oxo-piperazin-1-yl]-5-phenyl-thiophene-2-carboxylic acid]	100 to 5000	7	–
CCn1cc(S(=O)(=O)N2CC(=O)N(c3cc(-c4ccc(C)cc4)sc3C(=O)O)[C@H](C3CCCCC3)C2)cn1 [Compound 296, 3-[(R)-2-Cyclohexyl-4-(1-ethyl-1H-pyrazole-4-sulfonyl)-6-oxo-piperazin-1-yl]-5-p-tolyl-thiophene-2-carboxylic acid]	–	5	≤ 100
O=C(O)c1sc(-c2ccccc2)cc1N1C(=O)CN(S(=O)(=O)c2ccc(N3CCCC3)nc2)CC1C1CCCCC1 (centres unmarked) [Compound 76, 3-[2-Cyclohexyl-6-oxo-4-(6-pyrrolidin-1-yl-pyridine-3-sulfonyl)-piperazin-1-yl]-5-phenyl-thiophene-2-carboxylic acid]	–	4	≤ 100

— patent US9498483B2, “2,3,5-trisubstituted thiophene compounds and uses thereof” (priority 2010, dated 2016)
